{"source": "patent EP2787958B1", "about": "“CHELIDONIUM MAJUS EXTRACTS AND THEIR USE IN THE TREATMENT OF SKIN DISORDERS AND PROMOTION OF SKIN REGENERATION” (priority 2011, dated 2013)", "key": {"[1]": {"system": "HDF cells", "experiment": "Summary of uses and toxic effects deduced from the cell assays (Table 1)", "format": "cell-based, Human", "details": "for Anti-fibrotic (prevention of scar formation, also from acne) / Cytoprotective (antioxidant, anti-inflammatory and anti-ageing; useful also in the treatment of acne) / Cytotoxic / Irritant / Wound-healing: 24 hours", "procedure": "Antiradical (skin protective): this is deduced from the free radical scavenger effects.\nRevitalizing: this is deduced from the increased mitochondrial dehydrogenase effect.\nCytoprotective, with regard to oxidative damage (antioxidant, anti-inflammatory and anti-ageing): this is deduced from antagonising the stimulation of IL-1β and/or IL-6 induced by 100 µM H2O2 and from the absence of changes in cell morphology similar to the ones due to cell senescence.\nWound healing: this is deduced from the effect of inhibiting the production of IL-1β and by the effect of stimulating cell proliferation under standard growth conditions.\nCytotoxicity: this is deduced from the effect of reducing mitochondrial dehydrogenase activity or from the presence of morphologies characteristic of cell senescence.\nIrritation: this is deduced from the effect of increased production of IL-6 and/or IL-1β under standard growth conditions.\nSaid uses in the fields of medicine and cosmetics or the toxic effects of the substances of the invention at a given dosage, for 24 hours, are summarized in Table 1 below."}, "[2]": {"system": "interleukin 6 (IL-6)", "experiment": "Inflammatory cytokines in cell supernatant (Mosaic ELISA microarray): IL-6", "format": "cell-based, Human", "details": "for IL-6 ng/(ml* No. of cells from photo) ± SD: 24 hours; for IL-6 production (effect in words): 1-10 µM", "procedure": "(§1) The inflammatory cytokines, CD40 ligand (CD40L), interferon γ (INF-γ), interleukin 1α (IL-1α), interleukin 1β (IL-1β), interleukin 6 (IL-6), interleukin 8 (IL-8), interleukin 17 (IL-17) and tumour necrosis factor α (TNF-α) were determined qualitatively and quantitatively. Each measurement was performed in duplicate using a Mosaic™ ELISA protein microarray assay system from R&D System in accordance with the supplier's instructions. Furthermore, with the aim of obtaining a correlation model between light signal intensity and cytokine concentration, a calibration curve using 6 concentrations was performed for each of them. Analysis of the data was performed using the dedicated Q-View™ Imager software package from Quansys Biosciences"}, "[3]": {"system": "collagen produced by HDF cells", "experiment": "Quantity of collagen produced by the cells (elution of Sirius Red)"}, "[4]": {"experiment": "Anti-radical activity (decay of the DPPH radical)", "format": "biochemical", "details": "for Anti-radical (skin protective): 24 hours", "procedure": "With regard to assays aimed at evaluating anti-radical activity, a chemical test was used where the decay of the diphenylpicrylhydrazyl (DPPH) radical is assessed in the absence or in the presence of the test substances. Indeed, the DPPH radical is used to test the ability of substances to act as free radical scavengers. DPPH in solution has a purple colour with a maximum absorbance peak at 517 nm which changes to yellow-colourless when this radical extracts a hydrogen atom from a radical scavenger to give rise to the reduced form DPPH-H. The assay has been conducted in quadruplicate in 96 well microplates (SARSTEDT Tissue Culture Plate 96-well flat bottom cell+). 50 µl of an ethanol solution of the test substance at 2X concentration and then 50 µl of a 200 µM solution of DPPH (MW 168,18, Aldrich 2,2-di(4-tert-octylphenyl)-1-picrylhydrazyl, free radical Lot# MKBF7574V Cat N° 257621-100 mg) have been added to each well of the microplate. A positive control consisting of 0.1 mM vitamin C and a negative control consisting of ethanol alone were included in each microplate. After 30 minutes from the addition of DPPH, photographs of the plates were taken (Canon PowerShot A610 5.0 Mpixels) and read spectrophotometrically at 530 nm.\nBased on the analysis of the results reported in Table 9, some substances were selected for further characterisation of their anti-radical activity. For the selected substances, dose-activity curves were obtained and the IC50 value were computed using a non-linear regression model with the Hill equation at variable slope. Such substances had been selected due to both their anti-radical potential and the easiness of their isolation/production. The selection of substances was made in view of cosmetics applications. Moreover their activity on human dermal fibroblasts (HDF) is expected to be useful also for the development of dermatological medications. The selected substances are discussed below."}, "[5]": {"system": "interleukin 1β (IL-1β)", "experiment": "Inflammatory cytokines in cell supernatant (Mosaic ELISA microarray): IL-1β", "format": "cell-based, Human", "details": "for IL-1β ng/(ml* No. of cells from photo) ± SD: 24 hours; for IL-1β production (effect in words): 1-10 µM", "procedure": "as §1"}, "[6]": {"system": "HDF cells", "experiment": "Evaluation of cell proliferation (counting of Sirius Red stained cells in photographs)", "details": "24 hours"}, "[7]": {"system": "Human dermal fibroblasts (HDF)", "experiment": "Mitochondrial dehydrogenase activity (WST-1 formazan assay) in HDF cells", "details": "for Revitalizing agent: 24 hours; for activity at 1 µM / activity at 10 µM: Homo sapiens, Fibroblast, read-out: % mitochondrial dehydrogenase activity ± SD; for mitochondrial dehydrogenase activity (effect in words): fibroblasts", "description": "Human dermal fibroblasts were used for assay at the 3rd T75 passage.\nMitochondrial dehydrogenase activity was measured in HDF, HEK and HUVEC cells by means of the formazan assay, using the WST-1 kit from Roche Diagnostic in accordance with the supplier's instructions. Briefly: the reagent was added (10 µl per well), the incubation was carried out for a further 2 hours or 4 hours, and, at the end of this time, the absorbance was read for 1 s at a wavelength of 450 nm in a Perkin Elmer Victor 2 Wallac microplate reader.\nThe activity percentage (% mitochondrial dehydrogenase activity) is defined as: % mitochondrial dehydrogenase activity = ((absorbance of treated cells - absorbance of blank) / (absorbance of control - absorbance of blank)) x 100.\nThe tests were performed with observations after 18 hours, seeding 8,000 cells per well, and after 42 hours, seeding 2,000 cells per well. Furthermore, in order to better analyze the dose/response curves for dihydroberberine, canadine and stylopine, curves were collected at 11 concentrations by seeding 2,000 cells per well with 46 hours incubation.\nDose/response curves are plotted at 6 concentrations. The tests were performed with observations after 24 hours, seeding 8,000 cells per well."}, "[8]": {"details": "Dose 1 µm (coptisine: 1 pm [sic])"}}, "note": "Like-named read-outs stand apart in the source and are kept apart here.", "data": [{"compound": "c1c2c(cc3c1OCO3)-c1cc3ccc4c(c3c[n+]1CC2)OCO4", "note": "[coptisine]", "values": [{"measurement": "Anti-fibrotic (prevention of scar formation, also from acne)", "setting": "[1]; [8]", "value": "No"}, {"measurement": "Cytoprotective (antioxidant, anti-inflammatory and anti-ageing; useful also in the treatment of acne)", "setting": "[1]; [8]", "value": "No"}, {"measurement": "Cytotoxic", "setting": "[1]; [8]", "value": "No"}, {"measurement": "Irritant", "setting": "[1]; [8]", "value": "Yes (↑IL-6, ↑IL-1β)"}, {"measurement": "Wound-healing", "setting": "[1]; [8]", "value": "No"}, {"measurement": "Anti-fibrotic (prevention of scar formation, also from acne)", "setting": "[1]; Dose 10 µm", "value": "No"}, {"measurement": "Cytoprotective (antioxidant, anti-inflammatory and anti-ageing; useful also in the treatment of acne)", "setting": "[1]; Dose 10 µm", "value": "No"}, {"measurement": "Cytotoxic", "setting": "[1]; Dose 10 µm", "value": "No"}, {"measurement": "Irritant", "setting": "[1]; Dose 10 µm", "value": "Yes (↑IL-6, ↑IL-1β)"}, {"measurement": "Wound-healing", "setting": "[1]; Dose 10 µm", "value": "No"}, {"measurement": "concentrations at which toxic (irritant) effects are shown", "setting": "[1]; exposure for 24 hours", "value": "greater than or equal to 1 µM"}, {"measurement": "IL-6 ng/(ml* No. of cells from photo) ± SD", "setting": "[2]; 1 µM, 34 ng/ml TGF-β1", "value": "1027±36 ng/(ml* No. of cells from photo)"}, {"measurement": "IL-6 ng/(ml* No. of cells from photo) ± SD", "setting": "[2]; 1 µM, 100 µM H2O2", "value": "1034±27 ng/(ml* No. of cells from photo)"}, {"measurement": "IL-6 ng/(ml* No. of cells from photo) ± SD", "setting": "[2]; 1 µM, Standard conditions", "value": "612±31 ng/(ml* No. of cells from photo)"}, {"measurement": "IL-6 ng/(ml* No. of cells from photo) ± SD", "setting": "[2]; 10 µM, 34 ng/ml TGF-β1", "value": "1244±58 ng/(ml* No. of cells from photo)"}, {"measurement": "IL-6 ng/(ml* No. of cells from photo) ± SD", "setting": "[2]; 10 µM, 100 µM H2O2", "value": "1710±114 ng/(ml* No. of cells from photo)"}, {"measurement": "IL-6 ng/(ml* No. of cells from photo) ± SD", "setting": "[2]; 10 µM, Standard conditions", "value": "751±93 ng/(ml* No. of cells from photo)"}, {"measurement": "IL-6 production (effect in words)", "setting": "[2]; 34 ng/ml TGF-β1", "value": "tendency to increase IL-6 production in a dose-dependent manner"}, {"measurement": "IL-6 production (effect in words)", "setting": "[2]; 100 µM H2O2", "value": "tendency to increase IL-6 production in a dose-dependent manner"}, {"measurement": "IL-6 production (effect in words)", "setting": "[2]; standard conditions", "value": "tendency to increase IL-6 production in a dose-dependent manner"}, {"measurement": "collagen production (effect in words)", "setting": "[3]; 1-10 µM (1 µM and 10 µM), 34 ng/ml TGF-β1", "value": "stimulates collagen production in a dose-dependent manner"}, {"measurement": "collagen production (effect in words)", "setting": "[3]; 1-10 µM (1 µM and 10 µM), 100 µM H2O2", "value": "stimulates collagen production in a dose-dependent manner"}, {"measurement": "collagen production (effect in words)", "setting": "[3]; 1-10 µM, standard conditions", "value": "stimulates collagen production in a dose-dependent manner"}, {"measurement": "% DPPH activity", "setting": "[4]; 1 mM, 30 minutes", "value": 114, "unit": "%"}, {"measurement": "Anti-radical (skin protective)", "setting": "[4]; [8]", "value": "No"}, {"measurement": "Anti-radical (skin protective)", "setting": "[4]; Dose 10 µm", "value": "No"}, {"measurement": "IL-1β ng/(ml* No. of cells from photo) ± SD", "setting": "[5]; 1 µM, 34 ng/ml TGF-β1", "value": "207±8 ng/(ml* No. of cells from photo)"}, {"measurement": "IL-1β ng/(ml* No. of cells from photo) ± SD", "setting": "[5]; 1 µM, 100 µM H2O2", "value": "174±20 ng/(ml* No. of cells from photo)"}, {"measurement": "IL-1β ng/(ml* No. of cells from photo) ± SD", "setting": "[5]; 1 µM, Standard conditions", "value": "137±12 ng/(ml* No. of cells from photo)"}, {"measurement": "IL-1β ng/(ml* No. of cells from photo) ± SD", "setting": "[5]; 10 µM, 34 ng/ml TGF-β1", "value": "267±15 ng/(ml* No. of cells from photo)"}, {"measurement": "IL-1β ng/(ml* No. of cells from photo) ± SD", "setting": "[5]; 10 µM, 100 µM H2O2", "value": "236±8 ng/(ml* No. of cells from photo)"}, {"measurement": "IL-1β ng/(ml* No. of cells from photo) ± SD", "setting": "[5]; 10 µM, Standard conditions", "value": "155±7 ng/(ml* No. of cells from photo)"}, {"measurement": "IL-1β production (effect in words)", "setting": "[5]; 34 ng/ml TGF-β1", "value": "tendency to increase IL-1β production in a dose-dependent manner"}, {"measurement": "IL-1β production (effect in words)", "setting": "[5]; 100 µM H2O2", "value": "tendency to increase IL-1β production in a dose-dependent manner"}, {"measurement": "IL-1β production (effect in words)", "setting": "[5]; standard conditions", "value": "tendency to increase IL-1β production in a dose-dependent manner"}, {"measurement": "No. of cells from photo ± SD", "setting": "[6]; 1 µM, 34 ng/ml TGF-β1", "value": "111±18"}, {"measurement": "No. of cells from photo ± SD", "setting": "[6]; 1 µM, 100 µM H2O2", "value": "143±17"}, {"measurement": "No. of cells from photo ± SD", "setting": "[6]; 1 µM, Standard conditions", "value": "144±12"}, {"measurement": "No. of cells from photo ± SD", "setting": "[6]; 10 µM, 34 ng/ml TGF-β1", "value": "86±6"}, {"measurement": "No. of cells from photo ± SD", "setting": "[6]; 10 µM, 100 µM H2O2", "value": "114±0"}, {"measurement": "No. of cells from photo ± SD", "setting": "[6]; 10 µM, Standard conditions", "value": "129±27"}, {"measurement": "concentrations below which no significant effects on mitochondrial dehydrogenase activity are shown", "setting": "[7]", "value": "below 1 µM"}, {"measurement": "Revitalizing agent", "setting": "[7]; [8]", "value": "No"}, {"measurement": "Revitalizing agent", "setting": "[7]; Dose 10 µm", "value": "No"}, {"measurement": "activity at 1 µM", "setting": "[7]; 24 h", "value": "84.5 ± 3.17", "unit": "%"}, {"measurement": "activity at 10 µM", "setting": "[7]; 24 h", "value": "62.3 ± 11.8", "unit": "%"}, {"measurement": "activity at 1 µM", "setting": "[7]; 42 h", "value": "90.1 ± 2.3", "unit": "%"}, {"measurement": "activity at 10 µM", "setting": "[7]; 42 h", "value": "139 ± 5.34", "unit": "%"}, {"measurement": "mitochondrial dehydrogenase activity (effect in words)", "setting": "[7]; low dose for a prolonged period of time, to a lesser extent", "value": "stimulatory effects"}, {"measurement": "mitochondrial dehydrogenase activity (effect in words)", "setting": "[7]; overall", "value": "mostly inhibitory effects"}]}]}
